Key:
human factor XIa = target: T1, human factor XIa (Homo sapiens, UniProt P03951); assay: Measurement of FXIa inhibition (fluorogenic peptide substrate, AMC cleavage); assay type: biochemical; settings: factor XIa from Kordia 0.45 nM; substrate Boc-Glu(OBzl)-Ala-Arg-AMC; 30 min at 22° C.
T1 construct: purchased Kordia
Protocol: (§1) The factor XIa inhibition of the substances according to the invention is determined using a biochemical test system which utilizes the reaction of a peptidic factor XIa substrate to determine the enzymatic activity of human factor XIa. Here, factor XIa cleaves from the peptic factor XIa substrate the C-terminal aminomethylcoumarin (AMC), the fluorescence of which is measured. The determinations are carried out in microtitre plates.
1 μl of the diluted substance solutions is placed into each of the wells of white microtitre plates from Greiner (384 wells). […] After 15 min of incubation, the enzyme reaction is started by addition of 20 μl of the factor XIa substrate Boc-Glu(OBzl)-Ala-Arg-AMC dissolved in assay buffer (10 μM in assay buffer) from Bachem, the mixture is incubated at room temperature (22° C.) for 30 min and fluorescence is then measured (excitation: 360 nm, emission: 460 nm). The measured emissions of the test batches with test substance are compared to those of control batches without test substance (only dimethyl sulphoxide instead of test substance in dimethyl sulphoxide), and IC50 values are calculated from the concentration/activity relationships.

human plasma kallikrein = human plasma kallikrein (Homo sapiens, UniProt P03952); assay: Determination of the plasma kallikrein activity (fluorogenic peptide substrate, AMC cleavage); assay type: biochemical; settings: plasma kallikrein from Kordia 0.6 nM; substrate H-Pro-Phe-Arg-AMC; 30 min at 22° C.; read-out: IC50 [nM] (Table B, plasma kallikrein inhibition)
Protocol: as §1, with “To determine the plasma kallikrein” for “The factor XIa”, “invention,” for “invention is determined using”, “system is used” for “system”, “plasma kallikrein” for “factor XIa”, “plasma kallikrein.” for “factor XIa.”
Test substances are dissolved in dimethyl sulphoxide and serially diluted in dimethyl sulphoxide (3000 μM to 0.0078 μM; resulting final concentrations in the test: 50 μM to 0.00013 μM). 1 μl of the diluted substance solutions is placed into each of the wells of white microtitre plates from Greiner (384 wells). 20 μl of assay buffer (50 mM Tris/HCl pH 7.4; 100 mM sodium chloride solution; 5 mM of calcium chloride solution; 0.1% of bovine serum albumin) and 20 μl of plasma kallikrein from Kordia (0.6 nM in assay buffer) are then added successively. After 15 min of incubation, the enzyme reaction is started by addition of 20 μl of the substrate H-Pro-Phe-Arg-AMC dissolved in assay buffer (10 μM in assay buffer) from Bachem, the mixture is incubated at room temperature (22° C.) for 30 min and fluorescence is then measured (excitation: 360 nm, emission: 460 nm). The measured emissions of the test batches with test substance are compared to those of control batches without test substance (only dimethyl sulphoxide instead of test substance in dimethyl sulphoxide), and IC50 values are calculated from the concentration/activity relationships.

T1 sequence (P03951 388-625 limits assumed): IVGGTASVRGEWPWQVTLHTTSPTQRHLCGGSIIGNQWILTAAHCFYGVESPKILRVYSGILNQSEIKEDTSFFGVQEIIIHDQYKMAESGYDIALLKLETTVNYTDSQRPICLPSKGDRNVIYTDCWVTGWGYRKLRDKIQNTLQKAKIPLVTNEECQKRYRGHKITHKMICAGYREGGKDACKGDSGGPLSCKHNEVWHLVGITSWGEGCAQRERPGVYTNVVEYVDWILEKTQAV
T1 sequence (P03951 19-387 partner limits assumed): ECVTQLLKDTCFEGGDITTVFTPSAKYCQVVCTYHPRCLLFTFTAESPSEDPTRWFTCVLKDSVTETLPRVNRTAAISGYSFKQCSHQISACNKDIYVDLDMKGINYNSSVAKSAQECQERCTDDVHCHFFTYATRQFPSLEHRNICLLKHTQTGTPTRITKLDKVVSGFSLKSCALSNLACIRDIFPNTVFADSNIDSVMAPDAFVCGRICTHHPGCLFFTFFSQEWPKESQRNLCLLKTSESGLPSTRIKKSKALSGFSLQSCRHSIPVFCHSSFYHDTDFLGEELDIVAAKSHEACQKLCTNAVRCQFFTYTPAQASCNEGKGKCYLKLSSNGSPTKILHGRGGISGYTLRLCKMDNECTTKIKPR
Chain of human plasma kallikrein (P03952 391-638 limits assumed): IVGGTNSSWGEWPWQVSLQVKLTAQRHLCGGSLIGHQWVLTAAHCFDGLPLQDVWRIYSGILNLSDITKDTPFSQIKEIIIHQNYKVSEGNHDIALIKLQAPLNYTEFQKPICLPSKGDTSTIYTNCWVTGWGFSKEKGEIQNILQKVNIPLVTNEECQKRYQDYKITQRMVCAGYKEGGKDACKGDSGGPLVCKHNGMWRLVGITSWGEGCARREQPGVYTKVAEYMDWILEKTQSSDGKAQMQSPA
Chain of human plasma kallikrein (P03952 20-390 partner limits assumed): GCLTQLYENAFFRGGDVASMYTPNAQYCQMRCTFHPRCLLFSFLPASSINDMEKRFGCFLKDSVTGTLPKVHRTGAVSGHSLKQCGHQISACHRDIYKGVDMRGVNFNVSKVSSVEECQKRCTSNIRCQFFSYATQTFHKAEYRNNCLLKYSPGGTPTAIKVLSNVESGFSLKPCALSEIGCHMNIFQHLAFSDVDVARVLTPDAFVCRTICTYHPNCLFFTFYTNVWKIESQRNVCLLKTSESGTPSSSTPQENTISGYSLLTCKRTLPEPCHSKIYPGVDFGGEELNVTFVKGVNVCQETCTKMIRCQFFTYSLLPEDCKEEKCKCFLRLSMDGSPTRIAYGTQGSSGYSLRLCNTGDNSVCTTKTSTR

SMILES: COc1cn(C(Cc2ccn(C)n2)C(=O)Nc2ccc(C(N)=O)c(F)c2)c(=O)cc1-c1cc(C)ccc1C#N (racemic) [Example 43, 4-({2-[4-(2-Cyano-5-methylphenyl)-5-methoxy-2-oxopyridin-1(2H)-yl]-3-(1-methyl-1H-pyrazol-3-yl)propanoyl}amino)-2-fluorobenzamide]
- IC50 (human factor XIa): 12 nM
- IC50 (human plasma kallikrein): 8.3 nM

SMILES: CNC(=O)c1ccc(NC(=O)C(Cc2ccn(C)n2)n2cc(OC)c(-c3cc(C)ccc3C#N)cc2=O)cc1F (racemic) [Example 44, 4-({2-[4-(2-Cyano-5-methylphenyl)-5-methoxy-2-oxopyridin-1(2H)-yl]-3-(1-methyl-1H-pyrazol-3-yl)propanoyl}amino)-2-fluoro-N-methylbenzamide]
- IC50 (human factor XIa): 19 nM
- IC50 (human plasma kallikrein): 12 nM

SMILES: COc1cc(NC(=O)C(Cc2ccn(C)n2)n2cc(OC)c(-c3cc(Cl)ccc3C#N)cc2=O)ccc1C(N)=O (racemic) [Example 46, 4-({2-[4-(5-Chloro-2-cyanophenyl)-5-methoxy-2-oxopyridin-1(2H)-yl]-3-(1-methyl-1H-pyrazol-3-yl)propanoyl}amino)-2-methoxybenzamide]
- IC50 (human factor XIa): 8.9 nM
- IC50 (human plasma kallikrein): 2.4 nM

SMILES: CNC(=O)c1ccc(NC(=O)C(Cc2coc(C)n2)n2cc(OC)c(-c3cc(Cl)ccc3C#N)cc2=O)cc1F (racemic) [Example 47, 4-({2-[4-(5-Chloro-2-cyanophenyl)-5-methoxy-2-oxopyridin-1(2H)-yl]-3-(2-methyl-1,3-oxazol-4-yl)propanoyl}amino)-2-fluoro-N-methylbenzamide]
- IC50 (human factor XIa): 32 nM
- IC50 (human plasma kallikrein): 24 nM

SMILES: COCCC(C(=O)Nc1ccc(C(N)=O)c(OC)c1)n1cc(OC)c(-c2cc(Cl)ccc2C#N)cc1=O (racemic) [Example 48, 4-({2-[4-(5-Chloro-2-cyanophenyl)-5-methoxy-2-oxopyridin-1(2H)-yl]-4-methoxybutanoyl}amino)-2-methoxybenzamide]
- IC50 (human factor XIa): 15 nM
- IC50 (human plasma kallikrein): 7.7 nM

SMILES: COCCC(C(=O)Nc1ccc(C(N)=O)c(F)c1)n1cc(OC)c(-c2cc(C)ccc2C#N)cc1=O (racemic) [Example 49, 4-({2-[4-(2-Cyano-5-methylphenyl)-5-methoxy-2-oxopyridin-1(2H)-yl]-4-methoxybutanoyl}amino)-2-fluorobenzamide]
- IC50 (human factor XIa): 28 nM
- IC50 (human plasma kallikrein): 27 nM

SMILES: COCCC(C(=O)Nc1ccc(C(N)=O)c(F)c1)n1cc(OC)c(-c2cc(C)ccc2C#N)cc1=O (single isomer, unassigned) [Example 24, 4-({2-[4-(2-Cyano-5-methylphenyl)-5-methoxy-2-oxopyridin-1(2H)-yl]-4-methoxybutanoyl}amino)-2-fluorobenzamide]
- IC50 (human factor XIa): 27 nM
- IC50 (human plasma kallikrein): 25 nM

SMILES: COc1cn(C(Cc2ccccn2)C(=O)Nc2ccc(C(N)=O)c(F)c2)c(=O)cc1-c1cc(Cl)ccc1C#N (single isomer, unassigned) [Example 28, 4-({2-[4-(5-Chloro-2-cyanophenyl)-5-methoxy-2-oxopyridin-1(2H)-yl]-3-(pyridin-2-yl)propanoyl}amino)-2-fluorobenzamide]
- IC50 (human factor XIa): 6.6 nM
- IC50 (human plasma kallikrein): 4.8 nM

SMILES: COc1cn(C(Cc2ccncc2)C(=O)Nc2ccc(C(N)=O)c(F)c2)c(=O)cc1-c1cc(Cl)ccc1C#N (single isomer, unassigned) [Example 29, 4-({2-[4-(5-Chloro-2-cyanophenyl)-5-methoxy-2-oxopyridin-1(2H)-yl]-3-(pyridin-4-yl)propanoyl}amino)-2-fluorobenzamide]
- IC50 (human factor XIa): 5.1 nM
- IC50 (human plasma kallikrein): 2.7 nM

SMILES: COc1cn(C(Cc2cnco2)C(=O)Nc2ccc(C(N)=O)c(F)c2)c(=O)cc1-c1cc(Cl)ccc1C#N (single isomer, unassigned) [Example 45, 4-({2-[4-(5-Chloro-2-cyanophenyl)-5-methoxy-2-oxopyridin-1(2H)-yl]-3-(1,3-oxazol-5-yl)propanoyl}amino)-2-fluorobenzamide]
- IC50 (human factor XIa): 6.4 nM
- IC50 (human plasma kallikrein): 4 nM

SMILES: N#Cc1ccc(Cl)cc1-c1cc(=O)n(C(Cc2cnco2)C(=O)Nc2ccc(C(N)=O)c(F)c2)cc1OC(F)F (stereo not drawn) [Example 1]
- IC50 (human factor XIa): 240 nM
- IC50 (human plasma kallikrein): 490 nM

SMILES: N#Cc1ccc(Cl)cc1-c1cc(=O)n(C(Cc2cocn2)C(=O)Nc2ccc(C(N)=O)c(F)c2)cc1Cl (stereo not drawn) [Example 2]
- IC50 (human factor XIa): 190 nM
- IC50 (human plasma kallikrein): 260 nM

SMILES: COc1cn(C(Cc2cocn2)C(=O)Nc2ccc(C(N)=O)c(F)c2)c(=O)cc1-c1cc(Cl)ccc1C#N (stereo not drawn) [Example 3]
- IC50 (human factor XIa): 43 nM
- IC50 (human plasma kallikrein): 33 nM

SMILES: N#Cc1ccc(Cl)cc1-c1cc(=O)n(C(Cc2cnco2)C(=O)Nc2ccc(C(N)=O)c(F)c2)cc1Cl (stereo not drawn) [Example 4]
- IC50 (human factor XIa): 52 nM
- IC50 (human plasma kallikrein): 140 nM

SMILES: COc1cn(C(Cc2cnco2)C(=O)Nc2ccc(C(N)=O)c(F)c2)c(=O)cc1-c1cc(Cl)ccc1C#N (stereo not drawn) [Example 5]
- IC50 (human factor XIa): 14 nM
- IC50 (human plasma kallikrein): 14 nM

SMILES: COCCC(C(=O)Nc1ccc(C(N)=O)c(F)c1)n1cc(Cl)c(-c2cc(Cl)ccc2C#N)cc1=O (stereo not drawn) [Example 6]
- IC50 (human factor XIa): 47 nM
- IC50 (human plasma kallikrein): 110 nM

SMILES: CCC(C(=O)Nc1ccc(C(N)=O)c(F)c1)n1cc(OC)c(-c2cc(Cl)ccc2C#N)cc1=O (stereo not drawn) [Example 7]
- IC50 (human factor XIa): 25 nM
- IC50 (human plasma kallikrein): 36 nM

SMILES: CCC(C(=O)Nc1ccc(C(=O)NC)c(F)c1)n1cc(OC)c(-c2cc(Cl)ccc2C#N)cc1=O (stereo not drawn) [Example 8]
- IC50 (human factor XIa): 12 nM
- IC50 (human plasma kallikrein): 30 nM

SMILES: COc1cn(C(Cc2cccnc2)C(=O)Nc2ccc(C(N)=O)c(F)c2)c(=O)cc1-c1cc(Cl)ccc1C#N (stereo not drawn) [Example 9]
- IC50 (human factor XIa): 11 nM
- IC50 (human plasma kallikrein): 6 nM

SMILES: COc1cn(C(Cc2ccncc2)C(=O)Nc2ccc(C(N)=O)c(F)c2)c(=O)cc1-c1cc(Cl)ccc1C#N (stereo not drawn) [Example 10]
- IC50 (human factor XIa): 9 nM
- IC50 (human plasma kallikrein): 7 nM

SMILES: N#Cc1ccc(Cl)cc1-c1cc(=O)n(C(Cc2ccccn2)C(=O)Nc2ccc(C(N)=O)c(F)c2)cc1OC(F)F (stereo not drawn) [Example 11]
- IC50 (human factor XIa): 160 nM
- IC50 (human plasma kallikrein): 490 nM

SMILES: COc1cn(C(Cc2ccccn2)C(=O)Nc2ccc(C(N)=O)c(F)c2)c(=O)cc1-c1cc(Cl)ccc1C#N (stereo not drawn) [Example 12]
- IC50 (human factor XIa): 11 nM
- IC50 (human plasma kallikrein): 10 nM

SMILES: N#Cc1ccc(Cl)cc1-c1cc(=O)n(C(Cc2ccccn2)C(=O)Nc2ccc(C(N)=O)c(F)c2)cc1Cl (stereo not drawn) [Example 13]
- IC50 (human factor XIa): 63 nM
- IC50 (human plasma kallikrein): 110 nM

SMILES: N#Cc1ccc(Cl)cc1-c1cc(=O)n(C(C[C@@H]2CCCCO2)C(=O)Nc2ccc(C(N)=O)c(F)c2)cc1Cl (stereo partly drawn) [Example 14]
- IC50 (human factor XIa): 25 nM
- IC50 (human plasma kallikrein): 210 nM

SMILES: CNC(=O)c1ccc(NC(=O)C(C[C@@H]2CCCCO2)n2cc(Cl)c(-c3cc(Cl)ccc3C#N)cc2=O)cc1F (stereo partly drawn) [Example 15]
- IC50 (human factor XIa): 28 nM
- IC50 (human plasma kallikrein): 260 nM

SMILES: COc1cn(C(Cc2cc(C)no2)C(=O)Nc2ccc(C(N)=O)c(F)c2)c(=O)cc1-c1cc(Cl)ccc1F (stereo not drawn) [Example 16]
- IC50 (human factor XIa): 200 nM
- IC50 (human plasma kallikrein): 350 nM

SMILES: COc1cn(C(Cc2ccccn2)C(=O)Nc2ccc(C(N)=O)c(F)c2)c(=O)cc1-c1cc(Cl)ccc1F (stereo not drawn) [Example 17]
- IC50 (human factor XIa): 290 nM
- IC50 (human plasma kallikrein): 230 nM
